In PMC10562414, “GLP-1R signaling neighborhoods associate with the susceptibility to adverse drug reactions of incretin mimetics” (Nature Communications, 2023):

Legend:
[1] = biological target: kinase substrates (Kinase Library); experiment: Kinase substrate enrichment analysis of regulated phosphopeptides; parameters: species or system human; conditions: 1 μM
Experimental: All further data processing was performed in R (version 4.2.1). Only phosphopeptides with a localization score of at least 0.75 were considered for further analysis. Peptides quantified with different charge states were aggregated and only phosphopeptides with at least 2 quantifications for each time point, treatment and replicate were kept. Intensities were normalized by median centering and log2-scaling. Missing values were imputed by k-NN imputation. All statistical comparisons were performed based on homoscedastic two-tailed Student’s t-tests. For the kinase substrate enrichment analysis, the Kinase Library online analytical tool[73] was used with predetermined foreground and background sets based on previously determined significance thresholds (P < 0.05; log2 fold change >1). All remaining settings were left as default.

[2] = biological target: T1, GLP-1R (Homo sapiens, UniProt P43220); experiment: ebBRET pathway activation (15 pathways), Supplementary Fig. 14; compartment not given; format: cell-based
[3] = biological target: T1, GLP-1R; experiment: Inverted Gini coefficients for pathway selectivity (efficacy, potency) per compartment
Experimental: Inverted Gini coefficients depict differences in drug-induced pathway selectivity for efficacy and potency. Inverted Gini coefficients were calculated to compare the similarities among the 15 tested pathways (Gs, Gq, G11 , G14, G15, G12, G13, Gi1, Gi2, Gi3, GoA, GoB, Gz, GRK/Gb g and bARR) for efficacy (a) and potency (b) across the four compartments included in this study (PM, EE, GA, ER) where 1 represents equality and 0 represents dissimilarity.

T1 sequence (P43220 24-463): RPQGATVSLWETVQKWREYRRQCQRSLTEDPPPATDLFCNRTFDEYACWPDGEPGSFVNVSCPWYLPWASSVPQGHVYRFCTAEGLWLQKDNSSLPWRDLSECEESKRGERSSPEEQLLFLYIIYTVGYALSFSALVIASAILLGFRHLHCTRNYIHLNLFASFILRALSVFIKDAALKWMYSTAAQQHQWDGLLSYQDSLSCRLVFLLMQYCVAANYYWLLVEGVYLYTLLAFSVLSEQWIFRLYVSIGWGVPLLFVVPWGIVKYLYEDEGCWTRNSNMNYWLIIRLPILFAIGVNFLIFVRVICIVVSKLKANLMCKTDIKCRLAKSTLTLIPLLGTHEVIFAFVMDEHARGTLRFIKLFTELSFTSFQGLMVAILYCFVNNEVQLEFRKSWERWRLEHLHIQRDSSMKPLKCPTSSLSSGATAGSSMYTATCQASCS

In the case of `N#Cc1ccc(COc2cccc(C3CCN(Cc4nc5ccc(C(=O)O)cc5n4C[C@@H]4CCO4)CC3)n2)c(F)c1` [Danuglipron], the “kinase kinetics, in words” value [1] is reported as “distinctly different kinetics”, the “dominant_enrichment_value_log2, NUAK2” value ([1]; 15min, log10 abs adjusted p 0.784095) is reported as 1.911 and the “dominant_enrichment_value_log2, PKACA” value ([1]; 15min, log10 abs adjusted p 0.96096) is reported as 2.68. For the same compound, the “dominant_enrichment_value_log2, PRKD3” value ([1]; 15min, log10 abs adjusted p 1.61335) was 3.823, the “dominant_enrichment_value_log2, PRKD2” value ([1]; 15min, log10 abs adjusted p 1.89437) was 2.877 and the “dominant_enrichment_value_log2, SIK” value ([1]; 15min, log10 abs adjusted p 3.68823) was 3.799. The “Efficacy (normalized), GRK2/Gβγ” value ([2]; GRK2/Gβγ, Supplementary Fig. 14a, normalized) was 0, the “Efficacy (normalized), Gα11” value ([2]; Gα11, Supplementary Fig. 14a, normalized) was 0 and the “Potency (logEC50), Gα11” value ([2]; Gα11, Supplementary Fig. 14b) was 0. For the same compound, the “Efficacy (normalized), Gα12” value ([2]; Gα12, Supplementary Fig. 14a, normalized) was 0, the “Potency (logEC50), Gα12” value ([2]; Gα12, Supplementary Fig. 14b) was 0 and the “Efficacy (normalized), Gα13” value ([2]; Gα13, Supplementary Fig. 14a, normalized) was 0. For the same compound, the “Potency (logEC50), Gα13” value ([2]; Gα13, Supplementary Fig. 14b) was 0, the “Efficacy (normalized), Gα14” value ([2]; Gα14, Supplementary Fig. 14a, normalized) was 0 and the “Potency (logEC50), Gα14” value ([2]; Gα14, Supplementary Fig. 14b) was 0. The “Efficacy (normalized), Gα15” value ([2]; Gα15, Supplementary Fig. 14a, normalized) was 0, the “Potency (logEC50), Gα15” value ([2]; Gα15, Supplementary Fig. 14b) was 0 and the “Efficacy (normalized), Gαi1” value ([2]; Gαi1, Supplementary Fig. 14a, normalized) was 0. The “Potency (logEC50), Gαi1” value ([2]; Gαi1, Supplementary Fig. 14b) was 0, the “Efficacy (normalized), Gαi2” value ([2]; Gαi2, Supplementary Fig. 14a, normalized) was 0 and the “Potency (logEC50), Gαi2” value ([2]; Gαi2, Supplementary Fig. 14b) was 0. The “Efficacy (normalized), Gαi3” value ([2]; Gαi3, Supplementary Fig. 14a, normalized) was 0, the “Potency (logEC50), Gαi3” value ([2]; Gαi3, Supplementary Fig. 14b) was 0 and the “Efficacy (normalized), GαoA” value ([2]; GαoA, Supplementary Fig. 14a, normalized) was 0. For the same compound, the “Potency (logEC50), GαoA” value ([2]; GαoA, Supplementary Fig. 14b) was 0, the “Efficacy (normalized), GαoB” value ([2]; GαoB, Supplementary Fig. 14a, normalized) was 0 and the “Potency (logEC50), GαoB” value ([2]; GαoB, Supplementary Fig. 14b) was 0. The “Efficacy (normalized), Gαq” value ([2]; Gαq, Supplementary Fig. 14a, normalized) was 0, the “Potency (logEC50), Gαq” value ([2]; Gαq, Supplementary Fig. 14b) was 0 and the “Efficacy (normalized), Gαs” value ([2]; Gαs, Supplementary Fig. 14a, normalized) was 0.8077. The “Potency (logEC50), Gαs” value ([2]; Gαs, Supplementary Fig. 14b) was 0.7638, the “Efficacy (normalized), Gαz” value ([2]; Gαz, Supplementary Fig. 14a, normalized) was 1 and the “Potency (logEC50), Gαz” value ([2]; Gαz, Supplementary Fig. 14b) was 0.517. For the same compound, the “Efficacy (normalized), βARR2” value ([2]; βARR2, Supplementary Fig. 14a, normalized) was 0.4942, the “Potency (logEC50), βARR2” value ([2]; βARR2, Supplementary Fig. 14b) was 0.4339 and the “1 - Gini” value ([3]; Early endosomes, Supplementary Fig. 18a) was 0.2929. The “1 - Gini” value ([3]; Early endosomes, Supplementary Fig. 18b) was 0.7742, the “1 - Gini” value ([3]; Endoplasmic reticulum, Supplementary Fig. 18a) was 0.09 and the “1 - Gini” value ([3]; Endoplasmic reticulum, Supplementary Fig. 18b) was 0.8902. The “1 - Gini” value ([3]; Golgi apparatus, Supplementary Fig. 18a) was 0.1115, the “1 - Gini” value ([3]; Golgi apparatus, Supplementary Fig. 18b) was 0.854 and the “1 - Gini” value ([3]; Plasma membrane, Supplementary Fig. 18a) was 0.403. The “1 - Gini” value ([3]; Plasma membrane, Supplementary Fig. 18b) was 0.7941.
